Data published in PMC3885247 (Journal of medicinal chemistry, 2008).

How the values were obtained:
pcDHFR [1] = target: T1, pcDHFR (Pneumocystis carinii, UniProt P16184); settings: previously reported quinazolines; cited from earlier work
T1 sequence (P16184 1-206): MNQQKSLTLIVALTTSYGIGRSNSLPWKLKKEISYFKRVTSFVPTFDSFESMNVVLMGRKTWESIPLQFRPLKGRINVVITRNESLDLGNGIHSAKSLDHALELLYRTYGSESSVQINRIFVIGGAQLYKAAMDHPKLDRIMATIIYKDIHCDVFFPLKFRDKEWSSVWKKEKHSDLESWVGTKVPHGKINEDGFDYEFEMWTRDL

tgDHFR [2] = target: T2, tgDHFR (Toxoplasma gondii, UniProt Q07422); settings: previously reported quinazolines; cited from earlier work
T2 sequence (Q07422 1-610): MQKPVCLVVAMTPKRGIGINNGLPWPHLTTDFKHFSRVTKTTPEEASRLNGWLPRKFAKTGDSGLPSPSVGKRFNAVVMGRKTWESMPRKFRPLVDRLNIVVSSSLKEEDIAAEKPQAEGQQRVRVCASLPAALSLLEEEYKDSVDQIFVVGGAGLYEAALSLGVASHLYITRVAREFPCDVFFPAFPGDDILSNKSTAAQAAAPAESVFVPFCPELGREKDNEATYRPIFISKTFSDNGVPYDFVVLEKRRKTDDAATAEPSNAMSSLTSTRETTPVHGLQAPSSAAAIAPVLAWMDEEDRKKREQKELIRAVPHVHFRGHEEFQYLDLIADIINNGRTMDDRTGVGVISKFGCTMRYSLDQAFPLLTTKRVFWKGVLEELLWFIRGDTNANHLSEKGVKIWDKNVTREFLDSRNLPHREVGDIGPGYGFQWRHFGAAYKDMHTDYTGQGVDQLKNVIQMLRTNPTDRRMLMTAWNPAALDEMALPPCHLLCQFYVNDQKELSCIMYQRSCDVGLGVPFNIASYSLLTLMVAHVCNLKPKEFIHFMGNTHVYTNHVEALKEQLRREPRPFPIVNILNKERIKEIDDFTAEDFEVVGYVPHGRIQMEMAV

pcDHFR [3] = target: T1, pcDHFR; experiment: Inhibition of P. carinii DHFR; format: biochemical
rlDHFR = target: T3, rlDHFR (Rattus norvegicus, UniProt Q920D2); experiment: Inhibition of rat liver DHFR; format: biochemical
T3 sequence (Q920D2 1-187): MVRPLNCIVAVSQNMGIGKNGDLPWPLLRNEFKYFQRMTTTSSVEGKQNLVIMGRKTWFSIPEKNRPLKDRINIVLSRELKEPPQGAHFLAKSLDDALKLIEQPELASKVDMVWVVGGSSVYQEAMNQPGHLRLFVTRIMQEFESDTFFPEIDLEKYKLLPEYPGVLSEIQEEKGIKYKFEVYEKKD

tgDHFR [4] = target: T2, tgDHFR; experiment: biochemical
maDHFR = target: T4, maDHFR (Mycobacterium avium, UniProt O30463); experiment: Inhibition of M. avium DHFR; format: biochemical
T4 sequence (O30463 1-181): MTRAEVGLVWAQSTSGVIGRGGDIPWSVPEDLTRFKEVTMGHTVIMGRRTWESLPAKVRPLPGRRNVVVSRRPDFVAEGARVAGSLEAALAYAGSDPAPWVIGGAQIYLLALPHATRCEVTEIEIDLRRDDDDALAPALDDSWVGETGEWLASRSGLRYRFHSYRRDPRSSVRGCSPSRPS

SMILES | Selectivity ratio rl/pc (pcDHFR [1]) | Selectivity ratio rl/tg (tgDHFR [2]) | IC50 (pcDHFR [3]) [µM] | Selectivity ratio rl/pc (IC50 rlDHFR/IC50 pcDHFR) (pcDHFR [3]) | IC50 (rlDHFR) [µM] | IC50 (tgDHFR [4]) [µM] | Selectivity ratio rl/tg (IC50 rlDHFR/IC50 tgDHFR) (tgDHFR [4]) | IC50 (maDHFR) [µM] | Fold decrease in potency against maDHFR compared to 10 (maDHFR; comparator 10) [fold]
COc1ccc(OC)c(CNc2ccc3nc(N)nc(N)c3c2)c1 [Compound 3] | 0.2 | 7 |  |  |  |  |  |  | 
COc1ccc(OC)c(CN(CC2CC2)c2ccc3nc(N)nc(N)c3c2)c1 [Compound 12, 2,4-Diamino-6-[N-(2,5-dimethoxybenzyl)-N-cyclopropylmethylamino]quinazoline] |  |  | 0.025 | 0.4 | 0.0096 | 0.0073 | 1.3 | 0.016 | 5
